Consider 6 compounds from US5183819A, “Use of fused bicyclic imides in the treatment of various CNS disorders” (American Home Products Corporation, priority 1992, dated 1993).

Data set [1] concerns rats. The note with it: intravenous or subcutaneous administration; cited from earlier work.
In data set [2] the test system is monkeys with a preference for alcohol. The note with it: cited from earlier work.
In data set [3] the test system is isolation-induced aggressive mice. The following applies: White et al. 1991; cited from earlier work.
Data set [4] relates to male Wistar rats. The data set can be described thus: Ethanol consumption, free choice between water and 5% aqueous ethanol. The following applies: zalospirone 40 mg/kg, fluoxetine 10 mg/kg intraperitoneal; for ethanol consumed compared to control (Ringer's solution): treatment periods, g/kg or ml/rat basis.
Procedure: A 12 hour light/dark cycle was programmed with darkness commencing at 1900 hr. […] The drinking tube positions were switched daily. The ethanol concentration was increased by 1% every 3 days until a concentration of 5% was reached. All rats were weighed daily and water or aqueous ethanol intake recorded.
After 3 days at the 5% ethanol concentration the rats that had consumed the 5% ethanol consistently began baseline and the inconsistent or poor drinkers were dropped from the study. A total of 30 rats began baseline studies. Baseline consisted of 8 days of free choice between water and 5% aqueous ethanol. During this time each rat received intraperitoneal injections of Ringer's solution (NaCl, 0.86 g; KCl, 0.03 g; and CaCl2.2H2 O, 0.033 g diluted to 100 ml with distilled water). Weight and water or 5% aqueous ethanol consumption were determined daily at 0800 hr and 1800 hr.
In data set [5] the test system is mice. The following applies: White et al. 1991; cited from earlier work.

In the case of `O=C1CC2(CCCC2)CC(=O)N1CCCCN1CCN(c2ncccn2)CC1` [buspirone], in data set [1], the paradoxical sleep result is recorded as “reduced”, the slow wave sleep entry is “reduced” and the wakefulness entry was “increased wakefulness”. For the same compound, the preference for alcohol entry in data set [2] is “lower the preference for alcohol”. In addition, the “aggression in isolation-induced aggressive mice” value (“aggression” below) in data set [3] is recorded as “reduce aggression”.

For the compound `CC1(C)CC(=O)N(CCCCN2CCN(c3ncccn3)CC2)C(=O)C1` [gepirone], in data set [3], the “aggression” value is “reduce aggression”.

Consider `O=C1c2ccccc2S(=O)(=O)N1CCCCN1CCN(c2ncccn2)CC1` [ipsapirone], for which the “aggression” value in data set [3] was “reduce aggression”.

Consider `CNCCC(Oc1ccc(C(F)(F)F)cc1)c1ccccc1` (centres unmarked) [fluoxetine], for which, in data set [4], the “ethanol consumed compared to control (Ringer's solution)” value is listed as “significantly less ethanol”; the “food consumption compared to control rats” value is listed as “decreased food consumption”; the “total fluid intake vs control animals” value was “less than with the control animals”; the “water consumption, treated vs. control rats” value is given as “no significant differences”. The “weight gain compared to control rats” value in data set [4] was “significantly less weight gain”.

Consider `O=C1C2C3C=CC(C4C=CC43)C2C(=O)N1CCCCN1CCN(c2ncccn2)CC1` (centres unmarked) [zalospirone, 3a,4,4a,6a,7a-hexahydro-2-[4-[4-(2-pyrimidinyl)-1-piperazinyl]butyl]-4,7-ethano-1H-cyclobut[f]isoindole-1,3(2H)-dione], for which the “aggression” value in data set [3] is reported as “reduce aggression”. For the same compound, in data set [4], the “ethanol consumed compared to control (Ringer's solution)” value is reported as “significantly less ethanol”; the “total fluid intake vs control animals” value was “less than with the control animals”; the “water consumption, treated vs. control rats” value was “no significant differences”. Besides, the “debilitating (sedating) effects at the antiaggressive dose” value in data set [5] was “without the debilitating (sedating) effects”.

As to `CCCN(CCC)C1CCc2cccc(O)c2C1` (centres unmarked) [8-OH-DPAT, 8-hydroxy-2-(di-n-propylamino)tetralin], in data set [1], the paradoxical sleep entry is “reduced”, the slow wave sleep entry is given as “reduced” and the wakefulness entry is “increased wakefulness”.
